Reference: ChEMBL document CHEMBL2073893, “BBB transport and P-glycoprotein functionality using MDR1A (-/-) and wild-type mice. Total brain versus microdialysis concentration profiles of rhodamine-123” (Pharm Res, 1998)

Target: ATP-dependent translocase ABCB1 (Mus musculus, UniProt P21447)
Assay: TP_TRANSPORTER: increase in brain concentration in mdr1a(-/-) mouse
Format: functional, organism-based
Settings: in vivo

Sequence of ATP-dependent translocase ABCB1 (P21447 whole entry): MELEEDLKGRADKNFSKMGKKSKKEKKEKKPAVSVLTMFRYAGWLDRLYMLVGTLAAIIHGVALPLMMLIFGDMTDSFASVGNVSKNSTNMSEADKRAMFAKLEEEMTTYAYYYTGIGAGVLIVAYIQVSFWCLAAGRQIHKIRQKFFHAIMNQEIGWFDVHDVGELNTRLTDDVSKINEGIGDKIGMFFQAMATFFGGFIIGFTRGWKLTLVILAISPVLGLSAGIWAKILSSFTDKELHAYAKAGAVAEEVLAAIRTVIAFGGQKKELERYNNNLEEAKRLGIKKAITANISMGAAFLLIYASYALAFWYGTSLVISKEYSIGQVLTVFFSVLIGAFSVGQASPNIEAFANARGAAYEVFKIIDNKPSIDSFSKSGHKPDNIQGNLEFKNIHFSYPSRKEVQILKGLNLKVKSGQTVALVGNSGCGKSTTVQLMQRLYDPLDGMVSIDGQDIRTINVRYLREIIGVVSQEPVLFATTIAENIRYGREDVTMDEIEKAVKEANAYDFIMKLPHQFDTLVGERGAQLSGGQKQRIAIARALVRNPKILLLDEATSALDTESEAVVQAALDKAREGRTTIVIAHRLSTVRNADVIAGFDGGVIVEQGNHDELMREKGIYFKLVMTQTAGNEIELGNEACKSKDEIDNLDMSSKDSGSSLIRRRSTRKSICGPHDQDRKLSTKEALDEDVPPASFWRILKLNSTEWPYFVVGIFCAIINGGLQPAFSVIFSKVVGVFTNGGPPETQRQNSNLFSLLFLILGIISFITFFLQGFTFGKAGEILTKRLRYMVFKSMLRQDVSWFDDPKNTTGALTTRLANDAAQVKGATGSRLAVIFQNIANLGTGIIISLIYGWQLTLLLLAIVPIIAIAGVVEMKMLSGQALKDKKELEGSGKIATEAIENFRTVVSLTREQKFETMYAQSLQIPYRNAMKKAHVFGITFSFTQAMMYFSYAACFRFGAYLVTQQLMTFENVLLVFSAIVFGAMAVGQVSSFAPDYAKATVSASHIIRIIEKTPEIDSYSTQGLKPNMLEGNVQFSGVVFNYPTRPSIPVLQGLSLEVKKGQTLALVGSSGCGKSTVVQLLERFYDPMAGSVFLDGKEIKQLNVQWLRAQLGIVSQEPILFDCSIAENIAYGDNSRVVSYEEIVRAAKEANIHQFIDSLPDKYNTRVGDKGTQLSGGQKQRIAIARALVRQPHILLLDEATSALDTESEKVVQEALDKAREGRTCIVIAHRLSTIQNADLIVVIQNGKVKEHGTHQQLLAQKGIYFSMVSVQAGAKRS

COC(=O)c1ccccc1-c1c2ccc(=N)cc-2oc2cc(N)ccc12.Cl [RHODAMINE123]
Activity: substrate [+]
